This is an account of results in patent US6319910A, “Method for inhibiting cyclooxygenase-2 and tumor necrosis factor alpha” (Hospital for Joint Diseases, priority 1998, dated 2001).

The subject of test [1] is OA-affected cartilage. Kind of test: Spontaneous nitrite/nitric oxide release by OA-affected cartilage (ex vivo organ culture). The test is classed as cell-based, human. To be noted: Table 2; 5 μg/ml. The method, then:
(§1) Human osteoarthritis affected cartilage spontaneously release nitric oxide (NO) and PGE2 in the medium as previously reported (Amin et al, 1995a; 1997a). The OA-organ cultures were set up as described (Amin et al, 1995a; 1997a). Briefly, total knee articular cartilage from tibial plateau and femoral condyle were harvested from OA-affected patients. The cartilage was mixed and cut into 3-mm discs and 4-6 discs were placed in triplicate or quadruplicate, in a 24-well plate in 2.0 ml of Ham's F-12 medium supplemented with 0.2% endotoxin free human albumin, 10 mM Hepes pH 7.4 and antibiotics in the presence of various modulators, as previously described (Amin et al, 1995a; 1997a). CMT-8 was used at pharmacologically relevant concentrations in DMSO (<0.01% final concentration) as carrier. An equivalent amount of DMSO was also added in the control cultures.
(§2) The p value between control and CMT-8 treated values for PGE2≤0.1 (insignificant) whereas the p values between NMMA treated cartilage and CMT-8 treated cartilage was ≤0.001 (significant). The data are represented as mean±SD as examined by T test when n=3. Data represent±SD value as determined by Student's t test n=4. The P values described are compared with control unstimulated OA-cartilage. The data represents one of the two similar experiments. P values for PGE2 and Nitrite=^a≤0.5; ^b≤0.1; ^c≤0.05; ^d≤0.01.

The subject of test [2] is OA-affected cartilage. Kind of test: Spontaneous PGE2 release by OA-affected cartilage (ex vivo organ culture). It counts as cell-based, human. To be noted: Table 2; 5 μg/ml. On the procedure:
as §1, §2

Test [3] has as its system RAW 264.7 cells. Kind of test: PGE2 production/accumulation in LPS-stimulated RAW 264.7 cells. The test is classed as cell-based, murine. To be noted: for inhibition at 10 µg/mL: Mus musculus, RAW264.7, 16 h, read-out: PGE2 % Inhibition or (Increase). The method, then:
(§3) Murine macrophages (RAW 263.7 cells) which were grown in Dulbecco's modified eagle medium (DMEM) containing 10% fetal bovine serum, 2 mM glutamine, 50 U/ml penicillin and 50 μg/ml streptomycin, were stimulated with 100 ng/ml LPS to induce both NOS and COX-2 at 16 hr. […] The data presented in FIG. 1 represents mean±SD as examined by T test were n=3.
(§4) The effects of CMTs 1, 2, 3, 5 and 8 on PGE2 and NO accumulation in RAW 264.7 cells were further evaluated as described above for CMT-3. […]

Another test deals with TNFα. Kind of test: TNFα release in the medium by HEK 293 cells permanently transfected with human proTNFα (ELISA). Conditions: words; for Effect on spontaneous TNFα release: FIG. 8, 16 hours. The test is classed as cell-based. The method, then:
HEK 293 cells were transfected with the proTNFα cDNA (wild) to prepare a stable cell line. […] A mutant form of proTNFα cDNA which could not be cleaved by the endogenous TNFα convertase (TACE) to release soluble TNFα was also transfected in separate human HEK 293 cells. The soluble TNFα was estimated by ELISA from the wild type and mutant transfected cells from the medium (FIG. 6).
HEK 293 cells were grown as previously described by American Type Culture Collection (ATCC). […] The HEK 293 cells were incubated with CMT-3 to examine the effects of CMT-3 on TNFα release in the medium.
HEK 293 cells were grown under the conditions previously described by ATCC. Various compounds, including CMT-3 and doxycycline/minocyclines were incubated with proTNFα transfected HEK 293 cells releasing TNFα in the medium at 16 hours. […] Soluble TNFα was estimated by ELISA from the medium.

The subject of test [4] is RAW 264.7 cells. Kind of test: Nitrite (NO) production/accumulation in LPS-stimulated RAW 264.7 cells. It counts as cell-based, murine. Conditions: for inhibition at 10 µg/mL: Mus musculus, RAW264.7, 16 h. The method, then:
as §3, §4

Test [5] concerns the target T1, COX-2 (Mus musculus, UniProt Q05769).
T1 construct: using total unfractionated cell extracts; endogenous in cells; host or cells: RAW 264.7 cells, LPS-induced; cell-free extract
T1 sequence (Q05769 18-604): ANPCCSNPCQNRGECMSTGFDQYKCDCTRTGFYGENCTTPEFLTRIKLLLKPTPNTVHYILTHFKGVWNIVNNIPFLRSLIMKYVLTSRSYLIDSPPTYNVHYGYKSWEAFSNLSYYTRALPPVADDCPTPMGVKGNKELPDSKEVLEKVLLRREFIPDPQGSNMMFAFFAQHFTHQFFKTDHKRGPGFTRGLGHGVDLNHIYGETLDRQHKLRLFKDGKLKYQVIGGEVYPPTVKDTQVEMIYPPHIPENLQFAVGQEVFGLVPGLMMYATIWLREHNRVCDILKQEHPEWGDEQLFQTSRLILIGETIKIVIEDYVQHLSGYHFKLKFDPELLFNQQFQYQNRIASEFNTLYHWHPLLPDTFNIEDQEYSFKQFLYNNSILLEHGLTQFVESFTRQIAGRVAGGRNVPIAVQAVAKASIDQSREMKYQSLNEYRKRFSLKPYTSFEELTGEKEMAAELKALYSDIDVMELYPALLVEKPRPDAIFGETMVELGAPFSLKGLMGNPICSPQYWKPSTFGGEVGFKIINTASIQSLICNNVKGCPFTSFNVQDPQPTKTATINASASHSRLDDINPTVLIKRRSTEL
Kind of test: COX-2 specific activity in cell-free extracts of LPS-stimulated RAW 264.7 cells (PGE2 by RIA). The test is classed as biochemical, murine. On the procedure: Raw 264.7 cells were stimulated with LPS and cell-free extracts were prepared as follows. RAW 264.7 cells were induced with LPS (100 ng/ml) in the presence or absence of tetracyclines or hydrocortisone for 14-20 hours. Following induction, the cells were pelleted at 4° C. and resuspended in Tris buffer: 10 mM, pH 7.4 containing 10 μg/ml each of chymostatin, antipain, leupeptin and pepstatin, 1 mM DDT and 1 mM PMSF. Cells were lysed in a Polytron PA 1200 homogenizer (Kinematica AG, Switzerland) with the cocktail of protease inhibitors after 3 cycles of rapid freeze-thawing. The lysate was centrifuged at 18,000 at 4° C. in an eppendorf centrifuge, and the resulting supernatant was used as cell-free extracts. The protein was measured by BCA assay reagent (Pierce, Rockford, Ill.) using BSA as standard. […] The specific enzyme activity was defined as ng of PGE2 released/mg protein/37° C. for 20 minutes.
RAW 264.7 cells were stimulated with 1 μg/ml of LPS for 16 hours and cell-free extracts were prepared as described above. The extracts were incubated with different modulators for 20 minutes at 37° C. before adding the substrate to initiate the enzyme reaction, which was terminated after 30 minutes by heat inactivation. The data represent one of the two experiments, the PGE2 analysis from each sample was done in triplicates n=3. The p value is a comparison between control and experimentals.

The test system of the next test is NOS. Description: NOS expression in LPS-stimulated murine macrophages. The test is classed as cell-based. To be noted: FIG. 2; LPS 100 ng/ml; words. On the procedure:
(§5) RAW 263.7 cells were grown as previously described (Amin et al, 1995b). Murine macrophages stimulated with 100 ng/ml LPS were incubated with CMT-3 or tunicamycin (a glycosylation inhibitor). […] Nitrite and PGE2 were estimated as previously described (Amin et al, 1995b). It is quite possible that CMT-3 may inhibit COX-2 and PGE2 production by post translational modification of COX-2 which may be similar to tunicamycin inhibition. The data represents the mean±SD evaluated by T test (n=3).

The subject of test [6] is COX-2. Kind of test: Expression/modification (size) of COX-2 in LPS-stimulated murine macrophages, Western blot. It counts as cell-based. Conditions: LPS 100 ng/ml, words. On the procedure:
as §5
Murine macrophage cells were cultivated as previously described (Amin et al, 1995b). […] cells were stimulated with 100 ng/ml of LPS in the presence of CMT-3, CMT-5 and glycosylation inhibitor, tunicamycin. The cells were grown for 16 hr and harvested. The cell free extracts were prepared as previously described (Amin et al, 1995b). In FIG. 4A, 50 μg of protein was loaded in each well and run on SDS-PAGE gels and blotted onto Western blots using a specific anti COX-2 antibody as previously described (Amin et al, 1997a). The positive control is a standard COX-2. […] The size is approximately 2000 D smaller (CMT-3 form) than the native COX-2 shown as a standard. […] These experiments indicate that CMT-3 induces modification of the COX-2 protein. The SDS PAGE analysis and Western blotting of COX-2 was carried out as described above.

Setting [7] is: Experiment I, LPS 100 ng/ml, compound 10 μg/ml, 16 hours.
[8] abbreviates: Experiment II, LPS 100 ng/ml, compound 10 μg/ml, 16 hours.

For `CN(C)C1C(=O)C(C#N)=C(O)C2(O)C(=O)C3=C(O)c4c(O)cccc4C(C)(O)C3CC12` (stereo not shown) [CMT-2], the Nitrite was 84.0 ± 20.0 µM in the test on OA-affected cartilage [1] and 23.3 ± 3.5 µM with RAW 264.7 cells [4] (setting [8]). The PGE2 with OA-affected cartilage [2] is 145.2 ± 61.6 ng/mL. For the same molecule, the PGE2 accumulation was found to be 26.8 ± 8.8 ng/mL in the test on RAW 264.7 cells [3] (setting [7]) and 22.9 ± 5.0 ng/mL with RAW 264.7 cells [3] (setting [8]). For the same molecule, the “Effect on spontaneous TNFα release” value in the test on TNFα was “not CMT-2 and CMT-5, inhibit the spontaneous TNFα release”.

Regarding `C[C@@H]1C[C@@H]([C@H](O)CC2CC(=O)NC(=O)C2)C(=O)[C@@H](C)C1` [Cycloheximide, cycloheximide, reference compound], the “Effect on TNFα release in the medium” value in the test with TNFα (FIG. 7) is on record as “inhibited the release of TNFα in the medium”. Also, in the test with TNFα, the “Effect on spontaneous TNFα release” value was “inhibit the release of TNFα”.

Take `CC(=O)Oc1ccccc1C(=O)O` [Aspirin, aspirin, reference compound]: on COX-2 [5] (CMT-3 27 μM, CMT-8 27 μM, aspirin 56 μM, indomethacin 28 μM, words), the “Effect on specific activity of COX-2” value was “significantly inhibited the specific activity of COX-2”. Moreover, the “COX-2 Specific Activity” value on COX-2 [5] (Table 3, cell-free extracts, 10 μg (aspirin amount not given)) came out at 2.1 ± 0.1 PGE2 ng/mg protein.

With `C[C@@]1(O)c2cccc(O)c2C(O)=C2C(=O)[C@]3(O)C(O)=C(C(N)=O)C(=O)C[C@@H]3C[C@@H]21` [CMT-1, 4-dedimethylaminotetracycline], the Nitrite amounted to 82.0 ± 33.0 µM with OA-affected cartilage [1], 50.8 µM with RAW 264.7 cells [4] (setting [7]) and 20.3 µM with RAW 264.7 cells [4] (setting [8]). In the test with OA-affected cartilage [2], this molecule showed a PGE2 of 131.8 ± 37.7 ng/mL. The PGE2 accumulation is 31.5 ± 2.5 ng/mL in the test on RAW 264.7 cells [3] (16 h, 10 ug/mL) and 30.2 ± 8.0 ng/mL with RAW 264.7 cells [3] (setting [8]). In addition, in the test on TNFα, the “Effect on spontaneous TNFα release” value is given as “inhibit the spontaneous TNFα release”. In addition, the “Inhibition of TNFα (summary statement)” value in the test with TNFα (HEK 293 cells transfected with proTNFα cDNA, low levels) is given as “inhibiting TNFα”.

Turning to tunicamycin [reference compound], in the test on NOS, the “Effect on NOS expression” value is on record as “inhibit”. Further, the “Effect on COX-2 expression” value with COX-2 [6] (FIG. 2) is recorded as “inhibit”. The “Effect on size of COX-2” value with COX-2 [6] (FIG. 4A, 16 hr, Western blot) is listed as “much smaller than the native form”. Further, the “Effect on PGE2 production” value in the test with RAW 264.7 cells [3] (FIG. 2, LPS 100 ng/ml, words) was “inhibit”. The “Effect on NO production” value with RAW 264.7 cells [4] (FIG. 2, LPS 100 ng/ml, words) is “inhibit”.

As for `C[C@]12CCC(=O)C=C1CC[C@@H]1[C@@H]2[C@@H](O)C[C@@]2(C)[C@H]1CC[C@]2(O)C(=O)CO` [Hydrocortisone, hydrocortisone, reference compound], the PGE2 accumulation in the test on RAW 264.7 cells [3] (16 h, 10 ug/mL) came out at 12.3 ± 2.6 ng/mL; in the test with RAW 264.7 cells [3] (setting [8]), 9.5 ± 0.5 ng/mL. In addition, the inhibition at 10 µg/mL amounted to 52% in the test with RAW 264.7 cells [3] (setting [7]), 50% in the test with RAW 264.7 cells [3] (setting [8]), 32% in the test on RAW 264.7 cells [4] (setting [7]) and 40% in the test on RAW 264.7 cells [4] (setting [8]). Moreover, the Nitrite in the test with RAW 264.7 cells [4] (16 h, 10 ug/mL) came out at 34.3 µM; with RAW 264.7 cells [4] (setting [8]), 12.9 µM.
